Each structure is given as a SMILES string. Where a SMILES comes first, the peptide text is derived from it. The star is where a group is joined. Cbz = O=C(OCc1ccccc1)*

Assay type in all cases: cell-based
The test system of test [1] is HCT116 cells. Kind of test: Cell cycle analysis (DNA content). To be noted: HCT116, 24 h; 1 μM MG132, 2 μM CB-5083. On the procedure:
FIG. 7A depicts cell cycle analysis of HCT116 cells after 24 h of treatments with DMSO, 1 μM of MG132 (MG) or 2 μM of CB-5083. […] Data were from TMT labeling proteomics. M, C and N indicates MG132, CB-5083 and NMS-873 treatment, respectively. […] HCT116 cells were treated for 24 h with DMSO, 1 μM of MG132 (MG), 2 μM of CB-5083 (CB) or 4 μM of NMS-873 (NMS), n=3.

Another test has as its system E2F1. Kind of test: E2F1 reporter assay. To be noted: HCT116 transfected with pGL2-AN plasmid, 8 h treatment, luminescence. On the procedure:
(§1) FIGS. 10A-10F depicts p97 inhibition impairs the transcriptional activity of E2F1 by downregulating the CCND1/CDK complex. […] Data was analyzed using the g:Profiler website. Shading indicates the gene is a potential target of transcription factor c-Myb or E2F1. Blank indicates it is not a target gene. FIG. 10B depicts known regulatory network of the CCND1/CDK/RB1/E2F1 pathway. […] HCT116 cells were treated with 1 μM MG132, 2 μM CB-5083 or 4 μM of NMS-874 for 6 h. FIGS. 10E and 10F show transcriptional activity of E2F1 measured using E2F1 reporter assay. HCT116 cells were transfected with pGL2-AN plasmid (Addgene: 20950) for 24 h. Then cells were plated in 384 well plate and incubated for 16 h. The luminescence were detected after 8 h treatment with MG132, CB-5083 or NMS-873. Data are shown as mean±SD, n=3. f, qRT-PCR analysis of ATF3, DHFR and CCND1 RNAs following treatment with MG132, CB-5083 or NMS-874. HCT116 cells were treated for 2, 6 and 24 h using the same concentration as proteomic and western blot assay (n=4).
To determine if the decreased expression of E2F1 target genes was caused by the downregulation of E2F1 levels due to ER stress, qPCR and western blot were used to evaluate E2F1 levels. […] The transcriptional activity of E2F1 can also be repressed through the formation of a complex with the tumor suppressor protein retinoblastoma (RB1) (FIG. 10B). […]
Background: A reporter such as luciferase makes a cellular process visible.

For test [2], the system named is HCT116 cells. As to the kind of experiment: Western blot of E2F1 related proteins and phos-4EBP1. Here is the method:
FIGS. 9B-9C show network of E2F1 (FIG. 9B) and cMyb (FIG. 9C).
as §1
To investigate whether the protein translation was inhibited by p97 or proteasome inhibitor, the phosphorylation state of eukaryotic translation initiation factor 4E-binding protein 1 (4E-BP1) was examined. Phosphorylation of 4E-BP1 serves to increase total protein translation. […] The effect of p97 inhibition on specific protein levels arises from a change in transcript levels. To examine how transcript levels might be affected, potential transcription factor binding sites (TFBSs) in the promoters of these 33 genes in the TRANSFAC database were examined. […] By examining protein-protein interaction networks related to E2F1 and MYB in the STRING database, 11 E2F1 interactors were found (FIG. 9B) and 11 MYB interactors (FIG. 9C). […] Therefore it was determined to further investigate the role of E2F1, rather than MYB, in cells responding to p97 and proteasome inhibition.
It was hypothesized that CCND1 and CDK4/6 upregulation by MG132 promotes RB1 hyperphosphorylation.
A general note: Immunoblotting shows a protein as a band on a membrane.

The subject of a further test is cyclin D1. As to the kind of experiment: Cyclin D1 level and degradation (co-treatment, CHX chase). On the procedure: FIGS. 12A-12C depicts Western blots detecting the effects of p97 inhibitors and MG132 on cell cycle proteins in HT29 and HCT116 cells. […] Then, 50 μM of CHX was added and cells were collected at 0 h, 0.5 h, and 1 h. FIG. 12C depicts half-life of cyclin D1 in HCT116 cells. HCT116 cells were pre-treated with 5 μM of CB-5083 or DMSO for 30 minutes before adding 50 μM of CHX, and cells were collected at 0, 10, 20, 30 min (n=3), * indicates p<0.05 according to unpaired t-test.
The concentration of MG132, CB-5083 and Baf A1 was 1 μM, 2 μM and 10 μM, respectively. […] FIGS. 13D-13E depict the half-life of Securin in HCT116 cells. HCT116 cells were treated with 1 μM of MG132, 2 μM of CB-5083, 1 μM of MG132 plus 2 μM of CB-5083 or DMSO. […] Cells were pretreated with […] for 1 h. […] For FIGS. 13B-13G, D, B, M, C and N represents DMSO, Baf A1, MG132, CB-5083 and NMS-873, respectively. Data are shown as mean±SD. Statistical analysis was performed using one-way ANOVA.
Cells were co-treated with CB-5083 and either the proteasome inhibitor MG132 or the autophagy inhibitor Bafilomycin A1 (Baf A1).

Take `CC(C)C[C@@H](C=O)NC(=O)[C@H](CC(C)C)NC(=O)[C@H](CC(C)C)NC(=O)OCc1ccccc1` [MG132] (Cbz-Leu-Leu-Leu-aldehyde): the “Distribution of cells in the G0/G1 phase” value in the test with HCT116 cells [1] was “reduced distribution in the G0/G1 phase”. Moreover, the “Transcriptional activity of E2F1” value in the test on E2F1 is recorded as “reduce the transcriptional activity of E2F1”. Moreover, the “Phosphorylation of RB1” value in the test on HCT116 cells [2] (HCT116, 6 h, western blot) is given as “reduced phosphorylation of RB1”. For the same compound, the “Global protein translation (phosphorylation state of 4E-BP1)” value in the test with HCT116 cells [2] (HCT116, 6 h of treatments) is “inhibit global protein translation”. The “p21 (CDKN1A) level” value with HCT116 cells [2] (HCT116, TMT and western blot) is reported as “significantly upregulated”. Moreover, the “Cyclin D1 turnover in cytosol and nucleus” value in the test with cyclin D1 (HCT116, 50 μM CHX) is “blocked”. In addition, the “Effect on CB-5083 mediated cyclin D1 downregulation (co-treatment)” value with cyclin D1 (HCT116, 6 hours, MG132 1 μM, CB-5083 2 μM, Baf A1 10 μM) is listed as “rescued CB-5083 mediated cyclin D1 downregulation at the protein level but not at the mRNA level”.
